According to patent publication US9211350B2, “Compound with amyloid affinity” (priority 2011, dated 2015):

How the values were obtained:
[1] = Measurement of partition coefficient based on the octanol extraction method; type: physicochemical; settings: 1-octanol/water; average of 200 μL, 400 μL and 800 μL samples
Description: Partition coefficients based on the octanol extraction method (hereinafter referred to as log Poctanol) were measured, which are generally known as an indicator of permeability of compounds through the blood-brain barrier (hereinafter referred to as BBB).
Compound 1, Compound 2, Compound 3 and Compound 4 were adjusted to about 1 MBq/mL respectively using a water saturated 1-octanol solution to obtain sample solutions. Each sample solution in an amount of 30 μL was added to three microtubes. The three microtubes to which each sample solution was added were supplemented with both water saturated 1-octanol and 1-octanol saturated water so as to make the volume to be 200 μL, 400 μL or 800 μL, respectively (referred to as 200 μL sample, 400 μL sample and 800 μL sample, respectively). Each microtube was subjected to stirring, and then was shaken for 5 minutes (20 to 25±2° C., 20 rpm/min). Next, the mixture in each microtube was centrifuged (23° C., 3000 g×20 min.) with a centrifuge (type: T2-MC, manufactured by BECKMAN), and then 50 μL each of the octanol layer and the water layer was obtained, and subjected to measurement of radioactivity with an Autowell Gamma system (Type: ARC-7001, manufactured by Aloka). Using the obtained count, log Poctanol was calculated in accordance with the following equation (1). Meanwhile, the value of log Poctanol was an average value of the values which were respectively calculated for the 200 μL sample, the 400 μL sample and the 800 μL sample.

[2] = tested on: amyloid aggregates; experiment: In vitro binding test with gray matter and white matter homogenate of brain of AD patients; set-up: species or system human; settings: for Radioactive amount attached to brain tissue of AD patients (%), Gray matter: brain gray matter homogenate of AD patients (amyloid deposition); for Radioactive amount attached to brain tissue of AD patients (%), Gray matter / Radioactive amount attached to brain tissue of AD patients (%), White matter: 100 μg protein/mL, 3 hours, 22° C., relative to added radioactivity; for Radioactive amount attached to brain tissue of AD patients (%), White matter: brain white matter homogenate of AD patients (no amyloid); for Binding property to amyloid deposited in the brain (in words): gray matter versus white matter homogenate of AD patients
Description: Binding properties to amyloid aggregates of Compound 1, Compound 3, Compound 4, Compound 5 and [^123I]-IMPY were evaluated by the following in vitro binding test.
The assay was conducted using a gray matter homogenate of brain of AD patients and a white matter homogenate of brain of AD patients, which were prepared from a brain tissue (Frontal lobe) of AD patients commercially available from Analytical Biological Services Inc. (United States).
To each well of a 96-well microplate, 150 μL of a 0.1% BSA-containing 5 mmol/L phosphate buffer saline solution and 50 μL of a sample solution prepared above were added. Two wells were afforded to each sample solution. Of the two wells in which each sample solution was added, one received 50 μL of the brain grey matter homogenate of AD patients, and the other received 50 μL of the brain white matter homogenate of AD patients (final concentration: 100 μg protein/mL), so that the reaction was initiated. After the reaction solution was shaken for 3 hours (22° C., 400 rpm), a glass fiber filter (Multiscreen HTS FB, manufactured by Millipore) was used to filter the reaction solution. The filtrated filter was washed with a 0.1% BSA-containing 5 mmol/L phosphate buffer saline solution (200 μL, 3 times), and then radioactivity remained in the filter was measured with an Autowell Gammma system (type: ARC-7001, manufactured by Aloka). The ratio (%) of the radioactivity attached to the brain grey matter homogenate of AD patients or the brain white matter homogenate of AD patients relative to the added-radioactivity was calculated from the resulting count. Meanwhile, the above was repeated 3 times.

[3] = tested on: amyloid in brain of AD patients; experiment: Autoradiography of brain slice of AD patients; type: binding, human; settings: 5 μm brain slice of AD patients, 10 kBq/mL, compared with immunostaining by anti-amyloid antibody
Description: The following experiment was carried out in order to examine whether the compound of the present invention can image amyloid in brain of AD patients.
• (1) A 5 μm thick brain slice of AD patients was prepared from a brain tissue of AD patients available from Analytical Biological Services Inc. (United States). • (2) The brain slice prepared for each test substance was immersed in PBS 3 times in total: 15 minutes, 5 minutes and 5 minutes in this order. Next, it was immersed in a 1% BSA-containing PBS for 30 minutes to conduct hydrophilization. As the test substance, a 1% BSA-containing PBS containing each of Compound 1, Compound 2, Compound 3, Compound 4, Compound 5 and [^123I]-IMPY (radioactive concentration: 10 kBq/mL) was prepared and used. The above hydrophilized brain slice was immersed at room temperature in each of the test substance solutions. Then, it was immersed in a 1% BSA-containing PBS for 5 minutes, next in a PBS for 5 minutes and further in a PBS for 5 minutes to wash the brain slices. The washed brain slice was sufficiently dried, and then exposed to an imaging plate for 16 hours, and then autoradiogram image analysis was carried out by use of a Bio-imaging Analyzer (type: BAS-2500; manufactured by FUJIFILM Corporation) (FIG. 7, FIG. 8, FIG. 9, FIG. 10, FIG. 11, FIG. 12). • (3) Separately, immunostaining at a site of amyloid deposition with an anti-amyloid antibody was carried out using adjacent slices which were subjected to hydrophilization in accordance with the same procedures as the above. Anti-Human Amyloidβ(N) (82E1) Mouse IgG MoAb (Immuno-Biological Laboratories Co., Ltd.) was used as the anti-amyloid antibody, and Anti-Mouse IgG (H+L) Goat IgG Fab′-HRP (Immuno-Biological Laboratories Co., Ltd.) was used as a secondary antibody. The site of amyloid deposition was detected by applying the DAB+(3,3′-diaminobenzidinetetrahydrochloride) substrate kit (Dako) to HRP attached to the secondary antibody (FIG. 13). Results

[4] = Measurement of transferability into brain and clearance (radioactive accumulation in brain); settings: rats; for Radioactive accumulation per unit weight (% ID/g) in brain, After 2 min. / Radioactive accumulation per unit weight (% ID/g) in brain, After 60 min.: intravenous injection (tail vein); for Radioactive accumulation per unit weight (% ID/g) in brain, After 2 min.: 2 minutes after the injection; for Radioactive accumulation per unit weight (% ID/g) in brain, After 60 min.: 60 minutes after the injection; for Transferability to brain and clearance from brain (in words): intravenous injection, 2 and 60 minutes
Description: Using Compound 1, Compound 2, Compound 3, Compound 4 and Compound 5, radioactive accumulation in brain of male Wistar rats (8-week old) was measured.
A solution in which Compound 1, Compound 2, Compound 4 and Compound 5 were respectively dissolved in a physiological saline solution containing 50 mmol/L of L-cysteine hydrochloride was prepared, to obtain a sample solution (radioactive concentration: all 37 MBq/mL). A solution in which Compound 3 was dissolved in a physiological saline solution containing 10% ethanol and 50 mmol/L of L-cysteine hydrochloride was prepared, to obtain a sample solution (radioactive concentration: 37 MBq/mL). The sample solution was injected under non-anesthesia into the tail vein of male Wistar rats (8-week old) (dosage: 0.2 mL, dosed radioactivity: 7.4 MBq equivalent). The rats were sacrificed by decapitating under non-anesthesia to sample bloods and brains 2 and 60 minutes after the injection. Brains were subjected to measurement of mass of brains and further subjected to measurement of radioactivity (hereinafter referred to as A in this Example) with a single channel analyzer (detector type: SP-20 manufactured by OHYO KOKEN KOGYO Co., Ltd.). Further, the radioactivity level of the rest of the whole body including blood was measured in the same manner as above (hereinafter referred to as B in this Example). Using these measurement results, the amount of radioactive accumulation per unit weight of brain (% ID/g) at the respective time points after the dissection were calculated in accordance with the following formula (2).
The same procedure as the above was carried out to calculate the amount of radioactive accumulation per unit weight of brain (% ID/g) at the respective time points after the dissection.
Meanwhile, in this Example, three animals were used for the experiment at the respective time points.

Compound | logPoctanol value [1] | Radioactive amount attached to brain tissue of AD patients (%), Gray matter [2] [%] | Radioactive amount attached to brain tissue of AD patients (%), White matter [2] [%] | Binding property to amyloid deposited in the brain (in words) [2] | Binding to the site of amyloid deposition on autoradiogram (in words) [3] | Radioactive accumulation per unit weight (% ID/g) in brain, After 2 min. [4] [% ID/g] | Radioactive accumulation per unit weight (% ID/g) in brain, After 60 min. [4] [% ID/g] | Transferability to brain and clearance from brain (in words) [4]
[123I]c1ccc2nc(-c3ccc(-n4ccnn4)nc3)cn2c1 [Compound 1, [^123I]-6-iodo-2-[2-(1H-1,2,3-triazole-1-yl)pyridine-5-yl]imidazo[1,2-a]pyridine] | 2.10 | 2.59 | 0.48 | have a binding property to amyloid deposited in the brain | binding of the compounds to the site of amyloid deposition confirmed by immunostaining was also be confirmed | 1.226 | 0.028 | excellent transferability to brain and rapid clearance from brain
CN(C)c1ccc(-c2cn3cc(I)ccc3n2)cc1 [[^123I]-IMPY, 6-iodo-2-[4′-(N,N-dimethylamino)phenyl]imidazo[1,2-a]pyridine, reference compound] |  | 1.97 | 0.77 |  | binding of the compounds to the site of amyloid deposition confirmed by immunostaining was also be confirmed | 1.644 | 0.085 | 
[^123I]-6-iodo-2-[2-(1H-1,2,4-triazole-1-yl)pyridine-5-yl]imidazo[1,2-a]pyridine [Compound 4] | 2.23 | 1.13 | 0.17 | have a binding property to amyloid deposited in the brain | binding of the compounds to the site of amyloid deposition confirmed by immunostaining was also be confirmed | 1.287 | 0.056 | excellent transferability to brain and rapid clearance from brain
[^123I]-6-iodo-2-[2-(1H-imidazole-1-yl)pyridine-5-yl]imidazo[1,2-a]pyridine [Compound 3] | 1.91 | 2.00 | 0.83 | have a binding property to amyloid deposited in the brain | binding of the compounds to the site of amyloid deposition confirmed by immunostaining was also be confirmed | 1.186 | 0.246 | excellent transferability to brain and rapid clearance from brain
[^123I]-6-iodo-2-[2-(2H-1,2,3-triazole-2-yl)pyridine-5-yl]imidazo[1,2-a]pyridine [Compound 2] | 2.05 |  |  |  | binding of the compounds to the site of amyloid deposition confirmed by immunostaining was also be confirmed | 1.160 | 0.027 | excellent transferability to brain and rapid clearance from brain
[^123I]-6-iodo-2-[2-(pyrazole-1-yl)pyridine-5-yl]imidazo[1,2-a]pyridine [Compound 5] |  | 2.41 | 0.77 | have a binding property to amyloid deposited in the brain | binding of the compounds to the site of amyloid deposition confirmed by immunostaining was also be confirmed | 1.500 | 0.079 | excellent transferability to brain and rapid clearance from brain
